Results from patent publication US8940730B2, “Methods and compositions of treating a Flaviviridae family viral infection” (The Board of Trustees of the Leland Stanford Junior …, priority 2007, dated 2015).

Experiments:
[1] = test system: HCV genotype 2a infectious clone; assay: HCV genotype 2a infectious clone assay (Renilla luciferase); assay type: cell-based; conditions: % replication activity of control with no test compound; for activity at 5 µM: Hepatitis C virus, read-out: 2a (% activity @ 5 μM), 5 μM
Protocol: The assays in parts A and B were used to generate the genotype 1b inhibitory activity and related cell toxicity (viability) data supported herein. This assay has been used to generate the genotype 2a inhibitory activity data supported herein.
(§1) 1) Wash cells once with PBS, trypsinize. […] Mix twice by pipeting. […] Make a common stock from all tubes. […] 15) Incubate for 24 hr before treatment.
(§2) 3) Repeat daily for 2 more days.

Huh7.5 cells = conditions: human, 3 days
Protocol: as §1, §2
1) Alamar blue assay—a) Include medium for background subtraction (and also for seeing change in color easily). b) Aspirate medium. c) Make a stock of medium plus 10% Alamar blue. Total volume per well is 100 μl. d) Incubate for 2-2.5 hrs at 37° C. (or until there is a color change). c) Read plates at flex station.

Huh7 cell line = assay: MTT assay for HCV replicon reporter cell lines (cell toxicity); assay type: cell-based; conditions: Homo sapiens, Huh-7; cell toxicity, MTT, top concentration 25 μM; read-out: Cell Viability EC50
hERG channel = target: T1, hERG channel (Homo sapiens, UniProt Q12809); assay: HERG channel assay (whole cell patch clamp, CHO cells); assay type: cell-based; conditions: CHO cells expressing hERG, tail current
T1 construct: host or cells: CHO (Chinese Hamster Ovary), stably transfected
T1 sequence (Q12809 whole entry): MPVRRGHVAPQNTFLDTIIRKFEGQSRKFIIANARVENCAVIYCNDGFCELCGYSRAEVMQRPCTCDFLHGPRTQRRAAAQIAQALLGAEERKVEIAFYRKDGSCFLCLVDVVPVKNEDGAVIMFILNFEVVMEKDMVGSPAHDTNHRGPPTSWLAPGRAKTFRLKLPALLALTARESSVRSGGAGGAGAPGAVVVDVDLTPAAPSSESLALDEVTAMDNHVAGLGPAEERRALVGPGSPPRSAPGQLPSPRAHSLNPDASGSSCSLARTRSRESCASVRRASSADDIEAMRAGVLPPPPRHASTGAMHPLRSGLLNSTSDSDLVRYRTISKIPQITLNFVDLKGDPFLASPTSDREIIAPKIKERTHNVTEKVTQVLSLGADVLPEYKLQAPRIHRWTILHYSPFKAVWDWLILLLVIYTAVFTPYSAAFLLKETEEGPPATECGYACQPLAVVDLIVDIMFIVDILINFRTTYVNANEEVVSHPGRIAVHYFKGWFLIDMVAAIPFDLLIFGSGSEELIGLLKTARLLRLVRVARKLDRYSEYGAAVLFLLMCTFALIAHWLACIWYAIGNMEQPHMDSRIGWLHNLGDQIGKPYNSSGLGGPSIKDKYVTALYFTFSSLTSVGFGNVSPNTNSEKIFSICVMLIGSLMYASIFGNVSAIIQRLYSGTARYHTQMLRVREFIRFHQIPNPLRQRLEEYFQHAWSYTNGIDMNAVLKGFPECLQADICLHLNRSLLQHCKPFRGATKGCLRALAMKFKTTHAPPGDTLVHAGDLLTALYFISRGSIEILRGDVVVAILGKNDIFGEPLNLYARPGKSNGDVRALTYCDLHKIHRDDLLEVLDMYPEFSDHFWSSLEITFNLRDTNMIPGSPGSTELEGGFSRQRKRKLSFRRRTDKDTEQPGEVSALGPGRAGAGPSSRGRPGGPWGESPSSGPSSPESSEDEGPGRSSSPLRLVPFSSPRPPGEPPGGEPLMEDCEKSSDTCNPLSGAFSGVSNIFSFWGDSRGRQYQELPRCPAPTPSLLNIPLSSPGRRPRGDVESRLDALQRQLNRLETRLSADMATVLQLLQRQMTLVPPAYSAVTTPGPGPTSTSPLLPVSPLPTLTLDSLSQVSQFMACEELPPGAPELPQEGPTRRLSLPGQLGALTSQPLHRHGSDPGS
Protocol: Solutions: For electrophysiological recordings, the following solutions were used. External Solution: 2 mM CaCl2; 2 mM MgCl2; 4 mM KCl; 150 mM NaCl; 10 mM Glucose; 10 mM HEPES; 310-320 mOsm; pH 7.4 (adjusted with 1M NaOH). Internal Solution: 140 mM KCl; 10 mM MgCl2; 6 mM EGTA; 5 mM HEPESNa; […]; 300-320 mOsm; pH 7.25 (adjusted with 1M KOH).
Next, 1 μM cisapride (positive control) was added.
Data Analysis: Data analysis was performed using DataXpress (Axon Instruments), Clampfit (Axon Instruments) and Origin (Originlab Corporation) software.
In addition, activity against hERG potassium channel was tested on representative compounds. […] Compounds having a structure similar to that of EBP288 (compounds that contain, in R3, an N-attached heterocycle where substitutions adjacent to the nitrogen are small) should have a similar activity in this assay. […] Compounds having a structure similar to the aforementioned compound (compounds that contain, in R3, a C-attached heterocycle where heteroatom is acylated N) should have a similar activity in this assay. Generally, compounds that show no or only low activity in the hERG assay are preferred.

HCV 1b RNA replicon = assay: Luciferase assay for HCV genotype 1b replicon reporter cell lines; conditions: Hepatitis C virus, Huh-7, 48 h, read-out: 1b EC50, 1b replicon, Huh7, 48 hours, top concentration 25 μM

| Compound | activity at 5 µM [1] | 2a cell viability (@ 5 μM) (Huh7.5 cells) | EC50 (Huh7 cell line) | IC50 (hERG channel) | EC50 (HCV 1b RNA replicon) | 2a (% activity @ 5 μM) ([1]; 5 μM) |
| --- | --- | --- | --- | --- | --- | --- |
| Cc1ccc2c(c1)c(OCCCN(C)C)nn2Cc1ccccc1 [EBP151] | 62% | 92% |  |  |  |  |
| c1ccc(Cn2nc(OCCN3CCCCC3)c3ccccc32)cc1 [EBP175] | 89% | 98% |  |  |  |  |
| Cc1ccc2c(c1)c(OCCN1CCCCC1)nn2Cc1ccccc1 [EBP176] | 58% | 98% |  |  |  |  |
| c1ccc(Cn2nc(OCCCN3CCCC3)c3ccccc32)cc1 [EBP177] | 53% | 100% |  |  |  |  |
| Cc1ccc2c(c1)c(OCCCN1CCCC1)nn2Cc1ccccc1 [EBP178] | 25% | 92% |  |  |  |  |
| Cc1ccc2c(c1)c(OCCN1CCCC1)nn2Cc1ccccc1 [EBP181] | 58% | 100% |  |  |  |  |
| Cc1ccc2c(c1)c(OCCN(C)C)nn2Cc1ccccc1 [EBP182] | 82% | 100% |  |  |  |  |
| c1ccc(Cn2nc(OCCCN3CCCCC3)c3ccccc32)cc1 [EBP192] | 50% | 88% |  |  |  |  |
| Clc1ccc(Cn2nc(OCCCN3CCCC3)c3ccccc32)cc1 [EBP288] | 24% | 89% | > 25 µM | 1 µM | 3.7 µM |  |
| COc1ccc(Cn2nc(OCCCN3CCCC3)c3ccccc32)cc1 [EBP327] | 89% | 98% |  |  |  |  |
| COc1ccc(Cn2nc(OCCCN3CCCCC3)c3ccccc32)cc1 [EBP328] | 71% | 100% |  |  |  |  |
| COc1ccc(COc2nn(Cc3ccc(OC)cc3)c3ccccc23)cc1 [EBP330] | 75% | 100% |  |  |  |  |
| CN(C)CCOc1nn(CCc2ccc(Cl)cc2)c2ccccc12 [EBP332] | 66% | 100% |  |  |  |  |
| Clc1ccc(Cn2nc(OCCN3CCCC3)c3ccccc32)cc1 [EBP333] | 56% | 97% |  |  |  |  |
| Clc1cccc(Cn2nc(OCCN3CCCC3)c3ccccc32)c1 [EBP334] | 69% | 100% |  |  |  |  |
| Cc1ccc(Cn2nc(OCCN3CCCC3)c3ccccc32)cc1 [EBP335] | 73% | 10% |  |  |  |  |
| CC(C)c1ccc(Cn2nc(OCCN3CCCC3)c3ccccc32)cc1 [EBP336] | 38% | 95% | > 25 µM |  | 5.1 µM |  |
| COC(=O)c1cccc(Cn2nc(OCCN3CCCC3)c3ccccc32)c1 [EBP338] | 79% | 100% |  |  |  |  |
| c1ccc2c(c1)c(OCCN1CCCC1)nn2CC1CCCCC1 [EBP339] | 69% | 100% |  |  |  |  |
| CC(C)(C)OC(=O)N1CCC(Cn2nc(OCCN3CCCC3)c3ccccc32)CC1 [EBP340] | 62% | 98% |  |  |  |  |
| c1cncc(Cn2nc(OCCN3CCCC3)c3ccccc32)c1 [EBP356] | 68% | 95% |  |  |  |  |
| c1ccc2c(c1)c(OCCN1CCCC1)nn2Cc1ccncc1 [EBP357] | 77% | 94% |  |  |  |  |

| Compound | activity at 5 µM [1] | 2a cell viability (@ 5 μM) (Huh7.5 cells) | EC50 (Huh7 cell line) | IC50 (hERG channel) | EC50 (HCV 1b RNA replicon) | 2a (% activity @ 5 μM) ([1]; 5 μM) |
| --- | --- | --- | --- | --- | --- | --- |
| c1ccc2c(c1)c(OCCN1CCCC1)nn2CC1CCCNC1 (centres unmarked) [EBP360] | 80% | 92% |  |  |  |  |
| OC[C@@H]1CCCN1CCCOc1nn(Cc2ccc(Cl)cc2)c2ccccc12 [EBP383] | 35% | 100% | > 25 µM | 0.9 µM | 4.2 µM |  |
| NC(=O)[C@@H]1CCCN1CCCOc1nn(Cc2ccc(Cl)cc2)c2ccccc12 [EBP385] | 75% | 100% |  |  |  |  |
| Clc1ccc(Cn2nc(OCCCN3CCCC3c3ccccc3)c3ccccc32)cc1 (centres unmarked) [EBP387] | 35% | 100% | > 25 µM | 3.3 µM | 6.4 µM |  |
| C[C@H]1CCCN1CCCOc1nn(Cc2ccc(Cl)cc2)c2ccccc12 [EBP389] |  |  |  |  |  | 44% |
| C[C@H]1CCCN1CCCOc1nn(Cc2ccc(Cl)cc2)c2ccccc12 [EBP391] | 35% | 100% | > 25 µM | 0.23 µM | 4 µM |  |
| Clc1ccc(Cn2nc(OCCCN3CCCCCC3)c3ccccc32)cc1 [EBP397] | 14% | 100% | > 25 µM |  | 2.8 µM |  |
| O[C@H]1CCN(CCOc2nn(Cc3ccc(Cl)cc3)c3ccccc23)C1 [EBP400] | 84% | 100% |  |  |  |  |
| Clc1ccc(Cn2nc(OCCN3CCC[C@H]3CN3CCCC3)c3ccccc32)cc1 [EBP403] | 50% | 97% | > 25 µM |  | 3.8 µM |  |
| C[C@@H](COc1nn(Cc2ccc(Cl)cc2)c2ccccc12)CN1CCC[C@H]1CO [EBP449] | 83% | 99% |  |  |  |  |
| C[C@H](COc1nn(Cc2ccc(Cl)cc2)c2ccccc12)CN1CCC[C@H]1CO [EBP454] | 69% | 93% |  |  |  |  |
| OCC1CCCCN1CCCOc1nn(Cc2ccc(Cl)cc2)c2ccc(Cl)cc12 (centres unmarked) [EBP503] | 36% | 86% | > 25 µM |  | 7.2 µM |  |
| COC(=O)C1CCCCN1CCCOc1nn(Cc2ccc(Cl)cc2)c2ccccc12 (centres unmarked) [EBP505] | 87% | 94% |  |  |  |  |
| COC(=O)[C@@H]1CC[C@H](O)N1CCCOc1nn(Cc2ccc(Cl)cc2)c2ccccc12 [EBP507] | 87% | 90% |  |  |  |  |
| O=C(O)C[C@@H]1CCCN1CCCOc1nn(Cc2ccc(Cl)cc2)c2ccccc12 [EBP508] | 77% | 100% |  |  |  |  |
| CCOC(=O)[C@@H]1CCCN1CCCOc1nn(Cc2ccc(Cl)cc2)c2ccccc12 [EBP512] | 78% | 100% |  |  |  |  |
| O[C@H]1CC[C@H](O)N1CCCOc1nn(Cc2ccc(Cl)cc2)c2ccccc12 [EBP515] |  |  | > 25 µM | 2.6 µM | 4.9 µM |  |
| OC[C@H]1CCCN1CCCOc1nn(Cc2ccc(Cl)cc2)c2ccccc12 [EBP516] |  |  | > 25 µM | 0.81 µM | 4.7 µM |  |
| Clc1ccc(Cn2nc(OCCCN3CCC[C@H]3CNc3ccccc3)c3ccccc32)cc1 [EBP524] |  |  | > 25 µM | 2.6 µM | 8.3 µM |  |
| CCN(CC)c1ccc2c(c1)c(OCCCN1CCCC1)nn2Cc1ccc(Cl)cc1 [EBP534] |  |  | > 25 µM | 2.8 µM | 3.3 µM |  |
| Clc1ccc(Cn2nc(OCC3CCNCC3)c3cc(Cl)ccc32)cc1 [EBP640] |  |  | > 25 µM | 5.3 µM | 5 µM |  |
